In patent US20160263131A1, “TREATMENT OF HEPATIC FIBROSIS USING AN INHIBITOR OF CBP/CATENIN” (priority 2013, published 2016):

Legend:
NASH mice [1] = assay: Sirius red staining, fibrosis area in liver of NASH mice; assay type: in vivo, C57BL/6J mice; settings: NASH mice, 10 mg/kg oral QD 9-12 wks, 12 weeks of age, mean ± SD, n = 8; Disease-control 1.09 ± 0.27; significantly decreased; 10 mg/kg
Experimental: C57BL/6J mice (15-day pregnant female) were obtained from Charles River Laboratories Japan (Kanagawa, Japan). All animals used in this study were housed and cared for in accordance with the Japanese Pharmacological Society Guidelines for Animal Use. The animals were maintained in a SPF facility under controlled conditions of temperature (23±2° C.), humidity (45±10%), lighting (12-hour artificial light and dark cycles; light from 8:00 to 20:00) and air exchange. A high pressure (20±4 Pa) was maintained in the experimental room to prevent contamination of the facility. The animals were housed in polycarbonate cages KN-600 (Natsume Seisakusho, Japan) with a maximum of 4 mice per cage. Sterilized PULMASμ (Material Research Center, Japan) was used for bedding and replaced once a week. Sterilized solid HFD was provided ad libitum, being placed in the metal lid on top of the cage. Pure water was provided ad libitum from a water bottle equipped with a rubber stopper and a sipper tube. Water bottles were replaced once a week, cleaned and sterilized in autoclave and reused. Mice were identified by numbers engraved on earrings. Each cage was labeled with a specific identification code.

[2] = Body weight and general condition of NASH mice; settings: mouse, in vivo
Experimental: (§1) The viability, clinical signs and behavior were monitored daily. Body weight was recorded daily before drug administration. […] The animals were sacrificed by exsanguination through direct cardiac puncture under ether anesthesia (Wako Pure Chemical Industries).

NASH mice [3] = assay: Liver weight and liver-to-body weight ratio in NASH mice; assay type: in vivo, C57BL/6J mice; settings: 10 mg/kg oral QD 9-12 wks, mean±SD
Experimental: as §1

NASH mice [4] = assay: Whole blood glucose in NASH mice; assay type: in vivo, C57BL/6J mice; settings: 10 mg/kg oral QD 9-12 wks, mean±SD, Disease-control 682±63, significantly increased
Experimental: (§2) Non-fasting blood glucose was measured in whole blood using Life Check (EIDIA, Japan). For serum biochemistry, blood was collected in polypropylene tubes without anticoagulant and kept at room temperature for 30 minutes, followed by at 4° C. for 1 hour. The blood samples were then centrifuged at 1,000×g for 15 minutes at 4° C. The supernatant was collected and stored at −80° C. until use. Serum ALT and TG levels were measured by FUJI DRI-CHEM 7000 (Fujifilm, Japan).

NASH mice [5] = assay: Serum ALT in NASH mice; assay type: in vivo, C57BL/6J mice; settings: 10 mg/kg oral QD 9-12 wks, mean±SD, Disease-control 38±8, no significant difference
Experimental: as §2

NASH mice [6] = assay: Serum TG in NASH mice; assay type: in vivo, C57BL/6J mice; settings: 10 mg/kg oral QD 9-12 wks, mean±SD, Disease-control 558±256, no significant difference
Experimental: as §2

NASH mice [7] = assay: Liver hydroxyproline content in NASH mice; assay type: in vivo, C57BL/6J mice; settings: μg per mg total protein, 10 mg/kg oral QD 9-12 wks, mean±SD, Disease-control 1.09±0.42, no significant difference
Experimental: To quantify liver hydroxyproline content, frozen liver samples (35-45 mg) were processed by an alkaline-acid hydrolysis method as follows: the livers were defatted with 100% acetone, dried in the air, dissolved in 2N NaOH at 65° C., and autoclaved at 121° C. for 20 minutes. The lysed samples (400 μL) were acid-hydrolyzed with 400 μL of 6N HCl at 121° C. for 20 minutes, and neutralized with 400 μL of 4N NaOH containing 10 mg/mL activated carbon. AC buffer (2.2M acetic acid/0.48M citric acid, 400 μL) was added to the samples, followed by centrifugation to collect the supernatant. To construct a standard curve of hydroxyproline, serial dilutions of trans-4-hydroxy-Lproline (Sigma-Aldrich) were prepared starting at 16 μg/mL. The prepared samples and standards (each 400 μL) were mixed with 400 μL chloramine T solution (Wako Pure Chemical Industries, Japan) and incubated for 25 minutes at room temperature. The samples were then mixed with Ehrlich's solution (400 μL) and heated at 65° C. for 20 minutes to develop the color. After samples were cooled on ice and centrifuged to remove precipitates, the optical density of each supernatant was measured at 560 nm. The concentrations of hydroxyproline were calculated from the hydroxyproline standard curve. Protein concentrations of liver samples were determined using a BCA protein assay kit (Thermo Fisher Scientific, USA) and used to normalize the calculated hydroxyproline values. Hydroxyproline levels were expressed as μg per mg total protein.

NASH mice [8] = assay: Liver TG content in NASH mice; assay type: in vivo, C57BL/6J mice; settings: 10 mg/kg oral QD 9-12 wks, mean±SD, Disease-control 67.7±17.7, significant decrease
Experimental: Liver total lipid-extracts were obtained from right lobes by Folch's method (Folch J. et al, J. Biol. Chem. 1957; 226 (1): 497). The livers were homogenized in chloroform-methanol (2:1, v/v) and incubated overnight at room temperature. After washing with chloroform-methanol-water (8:4:3, v/v/v), the extracts were evaporated to dryness, and dissolved in isopropanol. Liver TG levels were measured by Triglyceride E-test (Wako Pure Chemical Industries). Extracts were diluted 2- to 4-fold in isopropanol when the TG contents exceed the limit of detection.

TIMP-1 = assay: Quantitative RT-PCR of liver, TIMP-1 mRNA, NASH mice; assay type: in vivo, C57BL/6J mice; settings: 10 mg/kg oral QD 9-12 wks, 12 weeks of age, mean ± SD, n = 8, Normal 1.00 ± 0.25, Disease-control 7.04 ± 2.13, tended to be down-regulated, 10 mg/kg
Experimental: (§3) Total RNA was extracted from liver samples using RNAiso (Takara Bio, Japan) according to the manufacturer's instructions. One μg of RNA was reverse-transcribed using a reaction mixture containing 4.4 mM MgCl2 (Roche, Switzerland), 40 U RNase inhibitor (Toyobo, Japan), 0.5 mM dNTP (Promega, USA), 6.28 μM random hexamer (Promega), 5× first strand buffer (Promega), 10 mM dithiothreitol (Invitrogen, USA) and 200 U MMLV-RT (Invitrogen) in a final volume of 20 μL. The reaction was carried out for 1 hour at 37° C., followed by 5 minutes at 99° C. Real-time PCR was performed using real-time PCR DICE and SYBR premix Taq (Takara Bio). To calculate the relative mRNA expression level, the expression of each gene was normalized to that of reference gene 36B4 (gene symbol: Rplp0). Information of PCR-primer sets and the plate layout was described in Table 1.

α-SMA = assay: Quantitative RT-PCR of liver, α-SMA mRNA, NASH mice; assay type: in vivo, C57BL/6J mice; settings: 10 mg/kg oral QD 9-12 wks, 12 weeks of age, mean ± SD, n = 8, Normal 1.00 ± 0.60, Disease-control 2.43 ± 1.33, no significant difference, 10 mg/kg
Experimental: as §3

Collagen Type 3 = assay: Quantitative RT-PCR of liver, Collagen Type 3 mRNA, NASH mice; assay type: in vivo, C57BL/6J mice; settings: 10 mg/kg oral QD 9-12 wks, 12 weeks of age, mean ± SD, n = 8, Normal 1.00 ± 0.16, Disease-control 2.27 ± 0.35, tended to be down-regulated, 10 mg/kg
Experimental: as §3

NASH mice [9] = assay: HE staining and NAFLD Activity score in NASH mice; settings: 10 mg/kg oral QD 9-12 wks, compared with Disease-control group
Experimental: NASH was induced in 40 male mice by a single subcutaneous injection of 200 μg streptozotocin (Sigma-Aldrich, USA) 2 days after birth and feeding with high fat diet (HFD, 57 kcal % fat, cat# HFD32, CLEA Japan, Japan) after 4 weeks of age. The mice were randomized into 5 groups of 8 mice at 9 weeks of age. Eight male littermates, fed with normal diet (cat# CE-2, CLEA Japan) without streptozotocin treatment, were used for the Normal group.
The test substance solution was filled in the osmotic pumps at concentrations determined based on the individual body weight at the start of treatment (day 0). Telmisartan was administered by oral route in a volume of 10 mL/kg body weight.
Telmisartan was administered once daily at a dose of 10 mg/kg body weight.
For HE staining, sections were cut from paraffin blocks of liver tissue prefixed in Bouin's solution and stained with Lillie-Mayer's Hematoxylin (Muto Pure Chemicals, Japan) and eosin solution (Wako Pure Chemical Industries).

CCCc1nc2c(C)cc(-c3nc4ccccc4n3C)cc2n1Cc1ccc(-c2ccccc2C(=O)O)cc1 [Telmisartan, reference compound]
Sirius red-positive area (fibrosis area) (NASH mice [1]): 0.50±0.10% | General condition [2]: No deterioration | Liver-to-body weight ratio (NASH mice [3]; Disease-control 8.1±0.6, significant decrease): 6.9±0.7% | Mean liver weight (NASH mice [3]; Disease-control 1867±183, significant decrease): 1376 ± 80 mg | Whole blood glucose (non-fasting) (NASH mice [4]): 880 ± 39 mg/dL | Serum ALT (NASH mice [5]): 35±6 U/L | Serum TG (NASH mice [6]): 843 ± 609 mg/dL | Liver hydroxyproline content (NASH mice [7]): 0.95 ± 0.25 µg/mg | Liver TG content (NASH mice [8]): 30.6 ± 5.6 mg/g | TIMP-1 mRNA expression level (relative, normalized to 36B4) (TIMP-1): 4.10±1.18 | α-SMA mRNA expression level (relative, normalized to 36B4) (α-SMA): 1.83±0.36 | Collagen Type 3 mRNA expression level (relative, normalized to 36B4) (Collagen Type 3): 1.73±0.33 | HE-stained liver sections: fat deposition, hepatocellular ballooning and inflammatory cell infiltration (NASH mice [9]): marked improvements
